Counter-ions that a name gives are not always drawn.
Molecular target: T1, Human DPP4 (Homo sapiens, UniProt P27487)
T1 construct: purchased Sigma-Aldrich MAK088
Assay: DPP4 activity assay (DPP4 Activity Assay Kit, fluorescent substrate)
Format: biochemical
Conditions: Human DPP4; read-out: DPP4 inhibition IC50 [nM])
Method: DPP4 activity assay. Human DPP4 activity assay data were obtained using a DPP4 Activity Assay Kit (Sigma-Aldrich, MAK088) according to the manufacturer's instructions. Briefly, 10 μL of DPP4 Assay Buffer were transferred per well in low volume 384-well plates before transferring 10 μL of test compound dissolved in DPP4 assay buffer. To each well was added 5 μL of Master Reaction Mix containing a fluorescent substrate that becomes fluorescent upon cleavage by the enzyme. Fluorescence intensity measurements were recorded at 1-minute time intervals over the course of 20 minutes using an Envision Multimode Plate Reader (PerkinElmer).

T1 sequence (P27487 whole entry): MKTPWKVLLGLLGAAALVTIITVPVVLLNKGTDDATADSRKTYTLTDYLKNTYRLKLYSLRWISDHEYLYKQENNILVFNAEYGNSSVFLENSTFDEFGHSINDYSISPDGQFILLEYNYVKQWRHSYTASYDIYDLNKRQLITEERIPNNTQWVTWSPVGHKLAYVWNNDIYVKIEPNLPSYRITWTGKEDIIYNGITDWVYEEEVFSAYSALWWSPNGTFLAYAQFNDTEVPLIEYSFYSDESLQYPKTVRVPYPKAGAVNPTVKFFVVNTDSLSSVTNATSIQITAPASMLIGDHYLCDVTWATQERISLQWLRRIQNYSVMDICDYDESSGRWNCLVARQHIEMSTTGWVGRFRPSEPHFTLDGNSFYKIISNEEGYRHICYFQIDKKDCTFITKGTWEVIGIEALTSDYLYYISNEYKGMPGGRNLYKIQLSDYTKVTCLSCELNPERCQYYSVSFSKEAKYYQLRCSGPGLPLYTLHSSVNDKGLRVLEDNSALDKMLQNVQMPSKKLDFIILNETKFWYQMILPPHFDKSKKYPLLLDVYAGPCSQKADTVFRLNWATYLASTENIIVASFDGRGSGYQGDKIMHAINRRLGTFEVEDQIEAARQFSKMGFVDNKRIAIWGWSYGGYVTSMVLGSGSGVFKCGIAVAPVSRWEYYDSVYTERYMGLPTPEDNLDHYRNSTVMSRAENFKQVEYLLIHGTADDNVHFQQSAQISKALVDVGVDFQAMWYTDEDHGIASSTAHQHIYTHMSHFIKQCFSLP

Compound	IC50
CCCCCCCOC(=O)NC12CC3CC(CC(NCC(=O)N4CCC[C@H]4C#N)(C3)C1)C2 [Compound 1, Heptyl(3-((2-((S)-2-cyanopyrrolidin-1-yl)-2-oxoethyl)amino)adamantan-1-yl)carbamate]	31 nM
CCCCCCCOC12CC3C[C@@H](CC(NCC(=O)N4CCC[C@H]4C#N)(C3)C1)C2 (stereo in doubt) [Compound 6]	31 nM
[N-]=[N+]=NCCOCCOCCOC(=O)c1nc(C(F)(F)F)n2c1CN(C(=O)C[C@H](N)Cc1cc(F)c(F)cc1F)CC2 [Compound 42, 2-(2-(2-azidoethoxy)ethoxy)ethyl (R)-7-(3-amino-4-(2,4,5-trifluorophenyl)butanoyl)-3-(trifluoromethyl)-5,6,7,8-tetrahydroimidazo[1,5-a]pyrazine-1-carboxylate]	0.4 nM
N#C[C@@H]1CCCN1C(=O)CN[C@]12CC3CC(C1)C[C@@](OCCOCCNC[C@H](O)[C@@H](O)[C@H](O)[C@H](O)CO)(C3)C2 (stereo in doubt) [Compound 11, (2S)-1-(((1S,3R,5S)-3-(2-(2-(((2S,3R,4R,5R)-2,3,4,5,6-pentahydroxyhexyl)amino)ethoxy)ethoxy)adamantan-1-yl)glycyl)pyrrolidine-2-carbonitrile]	31.6 nM
CC#CCn1c(N2CCC[C@@H](N)C2)nc2c1c(=O)n(Cc1nc(NCCCC)ccc1C(=O)O)c(=O)n2C [Compound 33]	11.4 nM
N#C[C@@H]1CCCN1C(=O)CN[C@@]12CC3C[C@@H](C1)C[C@](OCCOCCn1cc(CNC[C@H](O)[C@@H](O)[C@H](O)[C@H](O)CO)nn1)(C3)C2 [Compound 14, (2S)-1-(((1S,3R,5S)-3-(2-(2-(4-((((2S,3R,4R,5R)-2,3,4,5,6-pentahydroxyhexyl)amino)methyl)-1H-1,2,3-triazol-1-yl)ethoxy)ethoxy)adamantan-1-yl)glycyl)pyrrolidine-2-carbonitrile]	8.2 nM
N[C@@H](CC(=O)N1CCn2c(C(F)(F)F)nc(C(=O)OCCN3CCOCC3)c2C1)Cc1cc(F)c(F)cc1F [Compound 49, (R)-4-(1-((2-morpholinoethoxy)carbonyl)-3-(trifluoromethyl)-5,6-dihydroimidazo[1,5-a]pyrazin-7(8H)-yl)-4-oxo-1-(2,4,5-trifluorophenyl)butan-2-aminium (2R,3S)-3-carboxy-2,3-dihydroxypropanoate]	0.82 nM
N[C@@H](CC(=O)N1CCn2c(C(F)(F)F)nc(C(=O)OCCOCCOCCn3cc(CNC[C@H](O)[C@@H](O)[C@H](O)[C@H](O)CO)nn3)c2C1)Cc1cc(F)c(F)cc1F [Compound 44, 2-(2-(2-(4-((((2S,3R,4R,5R)-2,3,4,5,6-pentahydroxyhexyl)amino)methyl)-1H-1,2,3-triazol-1-yl)ethoxy)ethoxy)ethyl 7-((R)-3-amino-4-(2,4,5-trifluorophenyl)butanoyl)-3-(trifluoromethyl)-5,6,7,8-tetrahydroimidazo[1,5-a]pyrazine-1-carboxylate]	0.11 nM
N[C@@H](CC(=O)N1CCn2c(C(F)(F)F)nc(C(=O)OCCOCCOCCn3cc(CN(C[C@H](O)[C@@H](O)[C@H](O)[C@H](O)CO)C[C@H](O)[C@@H](O)[C@H](O)[C@H](O)CO)nn3)c2C1)Cc1cc(F)c(F)cc1F [Compound 48, 2-(2-(2-(4-((bis((2S,3R,4R,5R)-2,3,4,5,6-pentahydroxyhexyl)amino)methyl)-1H-1,2,3-triazol-1-yl)ethoxy)ethoxy)ethyl 7-((R)-3-amino-4-(2,4,5-trifluorophenyl)butanoyl)-3-(trifluoromethyl)-5,6,7,8-tetrahydroimidazo[1,5-a]pyrazine-1-carboxylate]	0.55 nM
CC#CCn1c(N2CCC[C@@H](N)C2)nc2c1c(=O)n(Cc1ccc(Cl)cc1C(=O)OC(C)C)c(=O)n2C [Compound 37]	700 nM

Other lines, results leading:

IC50	Compound
1 nM	N[C@@H](CC(=O)N1CCn2c(C(F)(F)F)nc(C(=O)OCCCCCN3CCOCC3)c2C1)Cc1cc(F)c(F)cc1F [Compound 53, (R)-4-(1-(((5-morpholinopentyl)oxy)carbonyl)-3-(trifluoromethyl)-5,6-dihydroimidazo[1,5-a]pyrazin-7(8H)-yl)-4-oxo-1-(2,4,5-trifluorophenyl)butan-2-aminium (2R,3R)-3-carboxy-2,3-dihydroxypropanoate]
5.3 nM	CC#CCn1c(N2CCC[C@@H](N)C2)nc2c1c(=O)n(Cc1ccccc1B(O)O)c(=O)n2C [Compound 27, (R)-(2-((8-(3-aminopiperidin-1-yl)-7-(but-2-yn-1-yl)-3-methyl-2,6-dioxo-2,3,6,7-tetrahydro-1H-purin-1-yl)methyl)phenyl)boronic Acid]
27 nM	CC#CCn1c(N2CCC[C@@H](N)C2)nc2c1c(=O)n(Cc1ccc(Cl)cc1Br)c(=O)n2C [Compound 36]
20.8 nM	N#C[C@@H]1CCCN1C(=O)CN[C@@]12CC3C[C@@H](C1)C[C@](OCCOCCN(C[C@H](O)[C@@H](O)[C@H](O)[C@H](O)CO)C[C@H](O)[C@@H](O)[C@H](O)[C@H](O)CO)(C3)C2 [Compound 10, (2S)-1-(((1S,3R,5S)-3-(2-(2-(bis((2S,3R,4R,5R)-2,3,4,5,6-pentahydroxyhexyl)amino)ethoxy)ethoxy)adamantan-1-yl)glycyl)pyrrolidine-2-carbonitrile]
2.2 nM	CCCCCCN(Cc1cn(CCOCCOCCNC(=O)c2nc(C(F)(F)F)n3c2CN(C(=O)C[C@H](N)Cc2cc(F)c(F)cc2F)CC3)nn1)CC(O)C(O)C(O)C(O)CO (stereo partly drawn) [Compound 47, 7-((R)-3-amino-4-(2,4,5-trifluorophenyl)butanoyl)-N-(2-(2-(2-(4-((hexyl(2,3,4,5,6-pentahydroxyhexyl)amino)methyl)-1H-1,2,3-triazol-1-yl)ethoxy)ethoxy)ethyl)-3-(trifluoromethyl)-5,6,7,8-tetrahydroimidazo[1,5-a]pyrazine-1-carboxamide]
17.8 nM	CN1CC2(CC(NC(=O)c3nc(C(F)(F)F)n4c3CN(C(=O)C[C@H](N)Cc3cc(F)c(F)cc3F)CC4)C2)C1 [Compound 55, (R)-4-(1-((2-methyl-2-azaspiro[3.3]heptan-6-yl)carbamoyl)-3-(trifluoromethyl)-5,6-dihydroimidazo[1,5-a]pyrazin-7(8H)-yl)-4-oxo-1-(2,4,5-trifluorophenyl)butan-2-aminium (2R,3R)-3-carboxy-2,3-dihydroxypropanoate]
17.4 nM	CCCCCCN(Cc1cn(CCOCCOC23CC4CC(CC(NCC(=O)N5CCC[C@H]5C#N)(C4)C2)C3)nn1)C[C@H](O)[C@@H](O)[C@H](O)[C@H](O)CO [Compound 15]
23 nM	CCCCCCN(CCc1ccc(OCCNC(=O)OCCOC23CC4C[C@@H](CC(NCC(=O)N5CCC[C@H]5C#N)(C4)C2)C3)cc1)C[C@H](O)[C@@H](O)[C@H](O)[C@H](O)CO (stereo in doubt) [Compound 13, 2-(((1R,3S,5S)-3-((2-((S)-2-cyanopyrrolidin-1-yl)-2-oxoethyl)amino)adamantan-1-yl)oxy)ethyl (2-(4-(2-(hexyl((2S,3R,4R,5R)-2,3,4,5,6-pentahydroxyhexyl)amino)ethyl)phenoxy)ethyl)carbamate]
4.2 nM	CCN(Cc1ccc(CNC(=O)OCCO[C@]23CC4C[C@H](C2)C[C@@]([C@H](N)C(=O)N2[C@H](C#N)C[C@@H]5C[C@@H]52)(C4)C3)cc1)C[C@H](O)[C@@H](O)[C@H](O)[C@H](O)CO [Compound 23, 2-(((1R,3S,5S)-3-((S)-1-amino-2-((1S,3S,5S)-3-cyano-2-azabicyclo[3.1.0]hexan-2-yl)-2-oxoethyl)adamantan-1-yl)oxy)ethyl (4-((ethyl((2S,3R,4R,5R)-2,3,4,5,6-pentahydroxyhexyl)amino)methyl)benzyl)carbamate Formate]
> 10000 nM	CC#CCn1c(N2CCC[C@@H](N)C2)nc2c1c(=O)n(Cc1ccc(Cl)cc1C(=O)OCCCCCC)c(=O)n2C [Compound 38, hexyl (R)-2-((8-(3-aminopiperidin-1-yl)-7-(but-2-yn-1-yl)-3-methyl-2,6-dioxo-2,3,6,7-tetrahydro-1H-purin-1-yl)methyl)-5-chlorobenzoate]
11.4 nM	CC#CCn1c(N2CCC[C@@H](N)C2)nc2c1c(=O)n(Cc1nc(NC)ccc1C(=O)O)c(=O)n2C [Compound 31]
9 nM	CCCCCCCS(=O)C12CC3C[C@@H](CC(NCC(=O)N4CCC[C@H]4C#N)(C3)C1)C2 (stereo in doubt) [Compound 3, (2S)-1-(((1S,3R,5S)-3-(heptylsulfinyl)adamantan-1-yl)glycyl)pyrrolidine-2-carbonitrile]
10.8 nM	N#C[C@@H]1CCCN1C(=O)CN[C@@]12CC3C[C@@H](C1)C[C@](OCCOCCn1cc(CN(C[C@H](O)[C@@H](O)[C@H](O)[C@H](O)CO)C[C@H](O)[C@@H](O)[C@H](O)[C@H](O)CO)nn1)(C3)C2 [Compound 9, (2S)-1-(((1S,3R,5S)-3-(2-(2-(4-((bis((2S,3R,4R,5R)-2,3,4,5,6-pentahydroxyhexyl)amino)methyl)-1H-1,2,3-triazol-1-yl)ethoxy)ethoxy)adamantan-1-yl)glycyl)pyrrolidine-2-carbonitrile]
700 nM	CC#CCn1c(N2CCC[C@@H](N)C2)nc2c1c(=O)n(Cc1ccc(Cl)cc1C(=O)NCCCCC)c(=O)n2C [Compound 40, (R)-2-((8-(3-aminopiperidin-1-yl)-7-(but-2-yn-1-yl)-3-methyl-2,6-dioxo-2,3,6,7-tetrahydro-1H-purin-1-yl)methyl)-5-chloro-N-pentylbenzamide]

System: not listed separately
Assay: Pharmacokinetic profiling, plasma and lung levels after intratracheal or inhalation delivery in the mouse
Format: in vivo
Conditions: mouse; IT dosing at 2 mg/kg (FIG. 2); after 48 h

level in the lung after 48 h	Compound
very low	COC(=O)c1nc(C(F)(F)F)n2c1CN(C(=O)C[C@H](N)Cc1cc(F)c(F)cc1F)CC2 [retagliptin, reference compound]

From patent US20240174675A1, “SMALL MOLECULE REGULATORS OF ALVEOLAR TYPE 2 CELL PROLIFERATION FOR THE TREATMENT OF PULMONARY DISEASES” (THE SCRIPPS RESEARCH INSTITUTE, priority 2021, published 2024)
